Results published in patent publication US9315520B2, “2-amino-6-methyl-4,4a,5,6-tetrahydropyrano[3,4-d][1,3]thiazin-8a(8H)-yl-1,3-thiazol-4-yl amides” (Pfizer Inc., priority 2014, dated 2016).
Where two headings read alike, the source gives them in different places.

Experiments:
pKa = assay type: physicochemical
[1] = target: P-glycoprotein (MDR1-transfected MDCK cell line) (Homo sapiens (Human), UniProt P08183); assay: Pgp Liability MDR1 Er; assay type: in vitro ADME; conditions: MDR1-transfected MDCK cell line; ratio of permeability, Papp BA/AB
Excerpt: MDR1 Efflux Ratio (MDR Er) from MDR1-transfected MDCK line cell line represents the ratio of permeability, Papp BA/AB. Procedure utilized from (Feng, B.; Mills, J. B.; Davidson, R. E.; Mireles, R. J.; Janiszewski, J. S.; Troutman, M. D.; de Morais, S. M. In vitro P-glycoprotein assays to predict the in vivo interactions of P-glycoprotein with drugs in the central nervous system. Drug Metab. Dispos. 2008, 36, 268-275.

CYP2D6 = CYP2D6 (Homo sapiens (Human), UniProt P10635); assay: General Multi-Point Cocktail DDI IC50 Assay; conditions: read-out: CYP2D6 IC50
Description: General Multi-Point Cocktail DDI IC50 Assay Conditions:
The incubation volume is 0.1 mL, utilizing a 384-well plate format. […] Substrate concentrations are near Km values that had been previously determined and incubation times are selected based on determinations of reaction velocity linearity. […] Samples are directly injected on an HPLC/MS/MS system. A Biomek FX workstation is used for liquid handling and sample incubation.

BACE1 = BACE1 (Homo sapiens (Human), UniProt P56817); assay: BACE1 Cell-Free Assay (fluorescence polarization); assay type: biochemical
[2] = HLM Clint (clearance in human liver microsomes); assay type: in vitro ADME
hERG channel = hERG channel (Homo sapiens (Human), UniProt Q12809); assay: hERG Patch Clamp Assay; assay type: cell-based; conditions: CHO cell transfected with hERG gene, automated Qpatch HT system
Description: After a ˜30 minute recovery period, experiments were initiated.
hERG Potassium Channel Current Recordings and Data Analysis:
The intracellular recording saline was composed of (in […]): 70 KF, 60 KCl, 15 NaCl, 5 EGTA, 5 HEPES, and adjusted to pH 7.2±0.1 with KOH. […] Test pulses were delivered at a frequency of 0.25 Hz. Up to 4 different concentrations were studied on each cell, each exposure lasting 5 minutes or until steady-state effects were observed. […] Using Sophion Qpatch Assay Software, the amplitude of the peak outward hERG current upon repolarizing ramp was measured. Current amplitude was determined by taking the average of the last 5 current peaks under each treatment condition. […] When possible, a concentration-response curve was plotted and the data were fitted using Qpatch software to determine an IC50. The P<0.05 was considered statistically significant.

[3] = Measurement determined at Analyza
[4] = Table 4, read-out: BACE1 Cell Free IC50
[5] = geometric mean of 2-4 determinations unless otherwise indicated (b: ≧5; c: single determination), read-out: BACE1 Cell-free Assay IC50

Sequence of BACE1 (P56817 46-457): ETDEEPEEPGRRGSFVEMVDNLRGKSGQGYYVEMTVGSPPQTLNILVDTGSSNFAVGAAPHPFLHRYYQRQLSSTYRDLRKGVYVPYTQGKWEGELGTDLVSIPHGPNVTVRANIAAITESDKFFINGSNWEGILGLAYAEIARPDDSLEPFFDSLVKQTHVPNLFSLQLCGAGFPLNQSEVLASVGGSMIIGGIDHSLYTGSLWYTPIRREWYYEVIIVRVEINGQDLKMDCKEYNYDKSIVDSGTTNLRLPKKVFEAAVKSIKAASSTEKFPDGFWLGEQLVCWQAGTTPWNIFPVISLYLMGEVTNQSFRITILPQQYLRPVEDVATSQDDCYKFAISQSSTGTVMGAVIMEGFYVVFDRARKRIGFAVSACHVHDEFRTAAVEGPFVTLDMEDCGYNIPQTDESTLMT
Sequence of P-glycoprotein (MDR1-transfected MDCK cell line) (P08183 whole entry): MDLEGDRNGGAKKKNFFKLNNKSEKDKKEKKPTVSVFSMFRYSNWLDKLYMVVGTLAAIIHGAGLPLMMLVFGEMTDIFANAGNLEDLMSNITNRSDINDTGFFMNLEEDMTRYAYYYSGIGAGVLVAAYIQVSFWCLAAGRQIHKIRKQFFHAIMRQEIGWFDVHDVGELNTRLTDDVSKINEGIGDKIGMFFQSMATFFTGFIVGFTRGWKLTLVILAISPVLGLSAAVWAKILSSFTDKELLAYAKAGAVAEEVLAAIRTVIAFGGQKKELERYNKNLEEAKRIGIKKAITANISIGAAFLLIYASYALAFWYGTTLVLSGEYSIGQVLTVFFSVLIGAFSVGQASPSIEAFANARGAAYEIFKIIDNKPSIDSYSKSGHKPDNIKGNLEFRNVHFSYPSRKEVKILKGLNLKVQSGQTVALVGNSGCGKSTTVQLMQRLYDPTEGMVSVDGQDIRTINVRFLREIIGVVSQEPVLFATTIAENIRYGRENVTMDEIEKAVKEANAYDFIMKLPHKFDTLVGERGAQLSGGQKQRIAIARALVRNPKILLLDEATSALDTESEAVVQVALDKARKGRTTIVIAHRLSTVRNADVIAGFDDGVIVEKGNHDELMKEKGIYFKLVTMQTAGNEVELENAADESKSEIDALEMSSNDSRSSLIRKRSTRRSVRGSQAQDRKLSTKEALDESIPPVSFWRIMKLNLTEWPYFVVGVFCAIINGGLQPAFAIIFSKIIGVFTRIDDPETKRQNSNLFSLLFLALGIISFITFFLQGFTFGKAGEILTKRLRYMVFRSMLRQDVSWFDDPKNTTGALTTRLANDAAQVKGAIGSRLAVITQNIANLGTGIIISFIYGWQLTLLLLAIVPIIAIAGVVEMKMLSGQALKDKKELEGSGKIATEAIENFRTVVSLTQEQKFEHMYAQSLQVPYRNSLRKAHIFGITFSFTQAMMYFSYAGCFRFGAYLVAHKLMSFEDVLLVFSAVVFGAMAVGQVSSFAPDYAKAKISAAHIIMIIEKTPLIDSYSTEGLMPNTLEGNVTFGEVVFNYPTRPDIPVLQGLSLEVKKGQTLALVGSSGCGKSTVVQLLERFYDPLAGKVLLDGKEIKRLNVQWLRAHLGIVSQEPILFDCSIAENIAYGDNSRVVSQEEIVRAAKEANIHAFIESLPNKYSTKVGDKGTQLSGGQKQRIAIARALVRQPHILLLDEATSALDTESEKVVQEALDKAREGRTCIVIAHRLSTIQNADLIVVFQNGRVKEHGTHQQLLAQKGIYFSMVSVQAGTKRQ
Sequence of CYP2D6 (P10635 whole entry): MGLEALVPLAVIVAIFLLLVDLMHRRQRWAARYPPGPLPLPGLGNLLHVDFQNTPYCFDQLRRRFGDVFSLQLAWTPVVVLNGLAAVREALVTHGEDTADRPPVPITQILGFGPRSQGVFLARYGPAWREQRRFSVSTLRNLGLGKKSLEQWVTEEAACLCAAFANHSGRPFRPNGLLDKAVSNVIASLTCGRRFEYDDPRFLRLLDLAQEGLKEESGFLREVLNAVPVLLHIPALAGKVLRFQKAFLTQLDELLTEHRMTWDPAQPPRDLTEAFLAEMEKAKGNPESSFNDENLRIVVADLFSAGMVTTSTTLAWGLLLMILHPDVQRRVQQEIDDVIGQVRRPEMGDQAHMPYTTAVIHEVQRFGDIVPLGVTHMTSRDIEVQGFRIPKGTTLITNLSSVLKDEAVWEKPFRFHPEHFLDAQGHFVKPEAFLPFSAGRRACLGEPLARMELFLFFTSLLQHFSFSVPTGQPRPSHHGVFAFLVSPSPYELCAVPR
Sequence of hERG channel (Q12809 whole entry): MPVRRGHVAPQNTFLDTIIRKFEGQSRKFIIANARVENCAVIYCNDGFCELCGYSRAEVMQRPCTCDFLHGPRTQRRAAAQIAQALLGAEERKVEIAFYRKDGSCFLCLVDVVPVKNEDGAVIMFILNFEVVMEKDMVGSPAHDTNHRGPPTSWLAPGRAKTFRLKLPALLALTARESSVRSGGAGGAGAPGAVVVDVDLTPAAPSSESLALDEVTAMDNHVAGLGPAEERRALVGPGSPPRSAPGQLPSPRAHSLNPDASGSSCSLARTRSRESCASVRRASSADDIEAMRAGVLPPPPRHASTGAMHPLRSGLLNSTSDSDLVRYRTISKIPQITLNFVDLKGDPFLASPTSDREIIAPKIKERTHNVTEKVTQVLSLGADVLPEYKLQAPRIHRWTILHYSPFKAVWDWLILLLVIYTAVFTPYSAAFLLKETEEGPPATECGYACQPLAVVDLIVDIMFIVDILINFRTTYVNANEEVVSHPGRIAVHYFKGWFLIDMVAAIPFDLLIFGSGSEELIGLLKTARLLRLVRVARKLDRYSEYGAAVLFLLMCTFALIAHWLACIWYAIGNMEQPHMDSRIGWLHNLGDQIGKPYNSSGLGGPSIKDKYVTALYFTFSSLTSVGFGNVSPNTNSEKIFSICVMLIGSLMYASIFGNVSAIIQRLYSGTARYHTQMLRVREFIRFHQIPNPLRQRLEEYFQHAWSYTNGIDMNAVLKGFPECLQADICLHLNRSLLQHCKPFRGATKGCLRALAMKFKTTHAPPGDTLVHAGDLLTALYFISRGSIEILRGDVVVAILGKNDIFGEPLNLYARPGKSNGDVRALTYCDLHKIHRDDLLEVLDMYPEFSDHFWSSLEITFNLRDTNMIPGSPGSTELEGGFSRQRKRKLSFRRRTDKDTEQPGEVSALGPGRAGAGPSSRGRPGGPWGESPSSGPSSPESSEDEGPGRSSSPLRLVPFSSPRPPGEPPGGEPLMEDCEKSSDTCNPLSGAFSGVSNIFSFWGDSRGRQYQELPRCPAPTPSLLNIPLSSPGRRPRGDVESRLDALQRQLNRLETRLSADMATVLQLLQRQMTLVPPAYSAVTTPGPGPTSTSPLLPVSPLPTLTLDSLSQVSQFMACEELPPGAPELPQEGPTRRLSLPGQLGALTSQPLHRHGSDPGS

IC50 (BACE1; [5]) [nM]	SMILES	also measured
	C[C@H]1C[C@H]2CSC(N)=N[C@@]2(c2nc(NC(=O)c3ccc(OC(F)F)cn3)cs2)CO1 [Comparator 1]	pKa (pKa; [3]): 7.0; Pgp liability MDR1 Er [1]: 7.1; Aniline Structural Alert (Aniline structural alert): No
	C[C@H]1C[C@H]2CSC(N)=N[C@@]2(c2nc(NC(=O)c3ccc(OC(F)F)cn3)ccc2F)CO1 [Comparator 2]	pKa (pKa): 8.7; pKa (pKa; [3]): 8.7; IC50 (CYP2D6): < 30 nM; IC50 (BACE1; [4]): 43 nM; Pgp liability MDR1 Er [1]: 14.2; HLM CLint [2]: 22.9 mL/min/kg^; Aniline Structural Alert (Aniline structural alert): No
	C[C@H]1C[C@H]2CSC(N)=N[C@@]2(c2nc(NC(=O)c3ccc(OC(F)F)cn3)ccc2F)CO1 [Comparator 3, reference compound]	pKa (pKa; [3]): 8.3; IC50 (BACE1; [4]): 3 nM; Pgp liability MDR1 Er [1]: 5.1; IC50 (hERG channel): 400 nM; HLM CLint [2]: 19.8 mL/min/kg^; Aniline Structural Alert (Aniline structural alert): Yes
17	C#CCn1ccc(C(=O)Nc2csc([C@]34CO[C@@H](C)C[C@H]3CSC(N)=N4)n2)n1 [Example 89, N-{2-[(4aR,6S,8aR)-2-amino-6-methyl-4,4a,5,6-tetrahydropyrano[3,4-d][1,3]thiazin-8a(8H)-yl]-1,3-thiazol-4-yl}-1-(prop-2-yn-1-yl)-1H-pyrazole-3-carboxamide]	
175	COCc1nc(C(=O)Nc2csc([C@]34CO[C@@H](C)C[C@H]3CSC(N)=N4)n2)co1 [Example 90, N-{2-[(4aR,6S,8aR)-2-amino-6-methyl-4,4a,5,6-tetrahydropyrano[3,4-d][1,3]thiazin-8a(8H)-yl]-1,3-thiazol-4-yl}-2-(methoxymethyl)-1,3-oxazole-4-carboxamide]	
215	C[C@H]1C[C@H]2CSC(N)=N[C@@]2(c2nc(NC(=O)c3coc(CC(F)(F)F)n3)cs2)CO1 [Example 91, N-{2-[(4aR,6S,8aR)-2-amino-6-methyl-4,4a,5,6-tetrahydropyrano[3,4-d][1,3]thiazin-8a(8H)-yl]-1,3-thiazol-4-yl}-2-(2,2,2-trifluoroethyl)-1,3-oxazole-4-carboxamide]	
376	C[C@H]1C[C@H]2CSC(N)=N[C@@]2(c2nc(NC(=O)C3CCC3)cs2)CO1 [Example 93, N-{2-[(4aR,6S,8aR)-2-amino-6-methyl-4,4a,5,6-tetrahydropyrano[3,4-d][1,3]thiazin-8a(8H)-yl]-1,3-thiazol-4-yl}cyclobutanecarboxamide]	
18	CC#CCOc1ccc(C(=O)Nc2csc([C@]34CO[C@@H](C)C[C@H]3CSC(N)=N4)n2)nc1 [Example 94, N-{2-[(4aR,6S,8aR)-2-amino-6-methyl-4,4a,5,6-tetrahydropyrano[3,4-d][1,3]thiazin-8a(8H)-yl]-1,3-thiazol-4-yl}-5-(but-2-yn-1-yloxy)pyridine-2-carboxamide]	
75	C[C@H]1C[C@H]2CSC(N)=N[C@@]2(c2nc(NC(=O)c3nc(C(F)F)co3)cs2)CO1 [Example 95, N-{2-[(4aR,6S,8aR)-2-amino-6-methyl-4,4a,5,6-tetrahydropyrano[3,4-d][1,3]thiazin-8a(8H)-yl]-1,3-thiazol-4-yl}-4-(difluoromethyl)-1,3-oxazole-2-carboxamide]	
2	Cc1cn(C(F)F)nc1C(=O)Nc1csc([C@]23CO[C@@H](C)C[C@H]2CSC(N)=N3)n1 [Example 96, N-{2-[(4aR,6S,8aR)-2-amino-6-methyl-4,4a,5,6-tetrahydropyrano[3,4-d][1,3]thiazin-8a(8H)-yl]-1,3-thiazol-4-yl}-1-(difluoromethyl)-4-methyl-1H-pyrazole-3-carboxamide]	
177	C[C@H]1C[C@H]2CSC(N)=N[C@@]2(c2nc(NC(=O)c3ncc(OC(F)F)cn3)cs2)CO1 [Example 97, N-{2-[(4aR,6S,8aR)-2-amino-6-methyl-4,4a,5,6-tetrahydropyrano[3,4-d][1,3]thiazin-8a(8H)-yl]-1,3-thiazol-4-yl}-5-(difluoromethoxy)pyrimidine-2-carboxamide]	
33	Cc1nc(OC(F)F)cnc1C(=O)Nc1csc([C@]23CO[C@@H](C)C[C@H]2CSC(N)=N3)n1 [Example 98, N-{2-[(4aR,6S,8aR)-2-amino-6-methyl-4,4a,5,6-tetrahydropyrano[3,4-d][1,3]thiazin-8a(8H)-yl]-1,3-thiazol-4-yl}-5-(difluoromethoxy)-3-methylpyrazine-2-carboxamide]	
25	C[C@H]1C[C@H]2CSC(N)=N[C@@]2(c2nc(NC(=O)c3ncc(OC(F)F)cc3Cl)cs2)CO1 [Example 99, N-{2-[(4aR,6S,8aR)-2-amino-6-methyl-4,4a,5,6-tetrahydropyrano[3,4-d][1,3]thiazin-8a(8H)-yl]-1,3-thiazol-4-yl}-3-chloro-5-(difluoromethoxy)pyridine-2-carboxamide]	
220	COCC(F)(F)c1cnc(C(=O)Nc2csc([C@]34CO[C@@H](C)C[C@H]3CSC(N)=N4)n2)cn1 [Example 100, N-{2-[(4aR,6S,8aR)-2-amino-6-methyl-4,4a,5,6-tetrahydropyrano[3,4-d][1,3]thiazin-8a(8H)-yl]-1,3-thiazol-4-yl}-5-(1,1-difluoro-2-methoxyethyl)pyrazine-2-carboxamide]	
447	C[C@H]1C[C@H]2CSC(N)=N[C@@]2(c2nc(NC(=O)c3ccc(OCC#N)cn3)cs2)CO1 [Example 101, N-{2-[(4aR,6S,8aR)-2-amino-6-methyl-4,4a,5,6-tetrahydropyrano[3,4-d][1,3]thiazin-8a(8H)-yl]-1,3-thiazol-4-yl}-5-(cyanomethoxy)pyridine-2-carboxamide]	
12	Cc1oc(CF)nc1C(=O)Nc1csc([C@]23CO[C@@H](C)C[C@H]2CSC(N)=N3)n1 [Example 102, N-{2-[(4aR,6S,8aR)-2-amino-6-methyl-4,4a,5,6-tetrahydropyrano[3,4-d][1,3]thiazin-8a(8H)-yl]-1,3-thiazol-4-yl}-2-(fluoromethyl)-5-methyl-1,3-oxazole-4-carboxamide]	
282	COCC(F)(F)c1ccc(C(=O)Nc2csc([C@]34CO[C@@H](C)C[C@H]3CSC(N)=N4)n2)nc1 [Example 103, N-{2-[(4aR,6S,8aR)-2-amino-6-methyl-4,4a,5,6-tetrahydropyrano[3,4-d][1,3]thiazin-8a(8H)-yl]-1,3-thiazol-4-yl}-5-(1,1-difluoro-2-methoxyethyl)pyridine-2-carboxamide]	
308	CCC(F)(F)Oc1ccc(C(=O)Nc2csc([C@]34CO[C@@H](C)C[C@H]3CSC(N)=N4)n2)nc1 [Example 104, N-{2-[(4aR,6S,8aR)-2-amino-6-methyl-4,4a,5,6-tetrahydropyrano[3,4-d][1,3]thiazin-8a(8H)-yl]-1,3-thiazol-4-yl}-5-(1,1-difluoropropoxy)pyridine-2-carboxamide]	
85	C[C@H]1C[C@H]2CSC(N)=N[C@@]2(c2nc(NC(=O)C34CC(C3)C4)cs2)CO1 [Example 105, N-{2-[(4aR,6S,8aR)-2-amino-6-methyl-4,4a,5,6-tetrahydropyrano[3,4-d][1,3]thiazin-8a(8H)-yl]-1,3-thiazol-4-yl}bicyclo[1.1.1]pentane-1-carboxamide]	
348	C[C@H]1C[C@H]2CSC(N)=N[C@@]2(c2nc(NC(=O)C3(C#N)CC3)cs2)CO1 [Example 106, N-{2-[(4aR,6S,8aR)-2-amino-6-methyl-4,4a,5,6-tetrahydropyrano[3,4-d][1,3]thiazin-8a(8H)-yl]-1,3-thiazol-4-yl}-1-cyanocyclopropanecarboxamide]	
475	C[C@H]1C[C@H]2CSC(N)=N[C@@]2(c2nc(NC(=O)C3CC3)cs2)CO1 [Example 107, N-{2-[(4aR,6S,8aR)-2-amino-6-methyl-4,4a,5,6-tetrahydropyrano[3,4-d][1,3]thiazin-8a(8H)-yl]-1,3-thiazol-4-yl}cyclopropanecarboxamide]	
94	C[C@H]1C[C@H]2CSC(N)=N[C@@]2(c2nc(NC(=O)C3(C#N)CCC3)cs2)CO1 [Example 108, N-{2-[(4aR,6S,8aR)-2-amino-6-methyl-4,4a,5,6-tetrahydropyrano[3,4-d][1,3]thiazin-8a(8H)-yl]-1,3-thiazol-4-yl}-1-cyanocyclobutanecarboxamide]	
461	C[C@H]1C[C@H]2CSC(N)=N[C@@]2(c2nc(NC(=O)C3(C)CCC3)cs2)CO1 [Example 109, N-{2-[(4aR,6S,8aR)-2-amino-6-methyl-4,4a,5,6-tetrahydropyrano[3,4-d][1,3]thiazin-8a(8H)-yl]-1,3-thiazol-4-yl}-1-methylcyclobutanecarboxamide]	
